Data as given in PubChem BioAssay AID256 (DTP/NCI, 2004).
Toxic doses and inconclusive results are not listed. Rule for the calls: active = survival T/C of 150% or more; inactive = T/C below 125% in these data.

Test system: CD2F1 mice, L1210 leukemia ip, survival T/C
Assay: NCI In Vivo Anticancer Drug Screen. Data for tumor model L1210 Leukemia (intraperitoneal) in CD2F1 (CDF1) mice
Conditions: endpoint: mean survival time, higher = longer survival
Outline: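 Read-out first: treated-group measurement over vehicle-control measurement, expressed as a ratio. Animals bore a transplanted tumor line and were dosed with compound or vehicle.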

[1] = dose: 12.5 mg/kg/injection, schedule: Q01DX009 (ip), vehicle: saline with Tween-80
[2] = dose: 100.0 mg/kg/injection, schedule: Q01DX009 (ip), vehicle: saline with Tween-80
[3] = dose: 100.0 mg/kg/injection, schedule: Q04DX003 (ip), vehicle: saline with Tween-80
[4] = dose: 200.0 mg/kg/injection, schedule: Q01DX009 (ip), vehicle: saline with Tween-80
[5] = dose: 200.0 mg/kg/injection, schedule: Q04DX003 (ip), vehicle: saline with Tween-80
[6] = dose: 400.0 mg/kg/injection, schedule: Q01DX009 (ip), vehicle: saline with Tween-80
[7] = dose: 400.0 mg/kg/injection, schedule: Q04DX003 (ip), vehicle: saline with Tween-80

Measured: T/C

OCC1CC2c3[nH]c4ccccc4c3CCN2C1 (centres undefined)
inactive: dose: 20.0 mg/kg/injection, schedule: Q01DX001 (ip), vehicle: saline with Tween-80 95 % of control | dose: 40.0 mg/kg/injection, schedule: Q01DX001 (ip), vehicle: saline with Tween-80 90 % of control | dose: 80.0 mg/kg/injection, schedule: Q01DX001 (ip), vehicle: saline with Tween-80 93 % of control

O=C(/C=C\C=C\c1ccc2c(c1)OCO2)N1CCCCC1
inactive: [1] 111 % of control | dose: 25.0 mg/kg/injection, schedule: Q01DX009 (ip), vehicle: saline with Tween-80 107 % of control | dose: 50.0 mg/kg/injection, schedule: Q01DX009 (ip), vehicle: saline with Tween-80 104 % of control

CC(=O)NC(=O)NC(Cc1ccccc1)c1ccccc1 (centres undefined)
inactive: [2] 98 % of control | [3] 104 % of control | [4] 92 % of control | [5] 96 % of control | [6] 95 % of control | [7] 108 % of control

CCOC(=O)C(OCC)P(=O)(OCC)OCC (centres undefined)
inactive: dose: 25.0 mg/kg/injection, schedule: Q01DX005 (ip), vehicle: water 101 % of control | dose: 50.0 mg/kg/injection, schedule: Q01DX005 (ip), vehicle: water 101 % of control | dose: 100.0 mg/kg/injection, schedule: Q01DX005 (ip), vehicle: water 101 % of control | dose: 200.0 mg/kg/injection, schedule: Q01DX005 (ip), vehicle: water 101 % of control | dose: 400.0 mg/kg/injection, schedule: Q01DX005 (ip), vehicle: water 97 % of control

O=C(COc1ccc(Cl)c(Cl)c1)NCc1cccc(NC(=O)c2ccc(S(=O)(=O)F)cc2)c1
inactive: dose: 100.0 mg/kg/injection, schedule: Q01DX001 (ip), vehicle: saline with Tween-80 87 % of control | dose: 200.0 mg/kg/injection, schedule: Q01DX001 (ip), vehicle: saline with Tween-80 86 % of control | dose: 400.0 mg/kg/injection, schedule: Q01DX001 (ip), vehicle: saline with Tween-80 89 % of control

C=CS(=O)(=O)c1ccc([N+](=O)[O-])cc1
inactive: dose: 25.0 mg/kg/injection, schedule: Q04DX002 (ip), vehicle: saline with Tween-80 88 % of control

CCOc1cc(C)cc(C(=O)O)c1
inactive: dose: 100.0 mg/kg/injection, schedule: Q04DX002 (ip), vehicle: saline with Tween-80 97 % of control | dose: 200.0 mg/kg/injection, schedule: Q04DX002 (ip), vehicle: saline with Tween-80 90 % of control | dose: 400.0 mg/kg/injection, schedule: Q04DX002 (ip), vehicle: saline with Tween-80 97 % of control

COc1cccnc1/C=N/NC(N)=S
active: dose: 5.54 mg/kg/injection, schedule: Q01DX009 (ip), vehicle: saline with Tween-80 200 % of control | dose: 8.32 mg/kg/injection, schedule: Q01DX009 (ip), vehicle: saline with Tween-80 162 % of control | [1] 152 % of control
inactive: dose: 3.13 mg/kg/injection, schedule: Q01DX009 (ip), vehicle: saline with Tween-80 118 % of control | dose: 5.54 mg/kg/injection, schedule: Q01DX001 (ip), vehicle: saline with Tween-80 103 % of control | dose: 5.54 mg/kg/injection, schedule: Q04DX001 (ip), vehicle: saline with Tween-80 102 % of control | dose: 6.25 mg/kg/injection, schedule: Q04DX002 (ip), vehicle: saline with Tween-80 104 % of control | dose: 8.32 mg/kg/injection, schedule: Q01DX001 (ip), vehicle: saline with Tween-80 105 % of control | dose: 8.32 mg/kg/injection, schedule: Q04DX001 (ip), vehicle: saline with Tween-80 105 % of control | dose: 12.5 mg/kg/injection, schedule: Q01DX001 (ip), vehicle: saline with Tween-80 109 % of control | dose: 12.5 mg/kg/injection, schedule: Q04DX001 (ip), vehicle: saline with Tween-80 111 % of control | dose: 12.5 mg/kg/injection, schedule: Q04DX002 (ip), vehicle: saline with Tween-80 104 % of control | dose: 18.8 mg/kg/injection, schedule: Q01DX001 (ip), vehicle: saline with Tween-80 109 % of control | dose: 18.8 mg/kg/injection, schedule: Q04DX001 (ip), vehicle: saline with Tween-80 105 % of control

COC(=O)c1cc2ccccc2o1
inactive: [2] 100 % of control | [3] 108 % of control | [4] 100 % of control | [5] 108 % of control | [6] 105 % of control | [7] 94 % of control
